Assay results reported in PMC12454493, “Insight on novel sulfamoylphenyl pyrazole derivatives as anticancer carbonic anhydrase inhibitors” (Molecular Diversity, 2024).

What was measured:
NCI-H522 = assay: NCI-60 one-dose SRB screen (Non-Small Cell Lung Cancer); format: cell-based; conditions: Homo sapiens, single dose 10 µM, 48 h, read-out: Growth inhibition percent (GI %)
Experimental: (§1) The National Cancer Institute (NCI) Developmental Therapeutic Program (www.dtp.nci.nih.gov) selected the 20 novel synthesized compounds 4a-e, 5a-e, 6a-c, 9a-e, 10 and 11 to test for their anticancer activity at a single dose of 10 µM using SRB assay. […] Supplementary Data S3; Table S1 presents the detailed screening results of the most promising compounds. The preliminary screening’s detailed results for the remaining compounds are elucidated in the (Supplementary Data S3; Table S2).
(§2) The guidelines of the Drug Evaluation Branch’s protocol at the NCI in Bethesda served as the basis for the in vitro anticancer screening assays. at one dose 10 µM against a panel of 60 cancer cell lines. The human tumor cell lines used belonged to nine panels: leukemia, melanoma, lung, colon, CNS, ovarian, renal, prostate and breast cancers using the sulforhodamine B (SRB) assay in a 48 h drug exposure protocol.

HOP-62 = assay: as above; format: cell-based; conditions: Homo sapiens, single dose 10 µM, 48 h, read-out: Growth inhibition percent (GI %)
Experimental: as §1, §2

NCI-H460 = assay: as above; format: cell-based; conditions: Homo sapiens, single dose 10 µM, 48 h, read-out: Growth inhibition percent (GI %)
Experimental: as §1, §2

NCI-H226 = assay: as above; format: cell-based; conditions: Homo sapiens, single dose 10 µM, 48 h, read-out: Growth inhibition percent (GI %)
Experimental: as §1, §2

K-562 = assay: NCI-60 one-dose SRB screen (Leukemia); format: cell-based; conditions: Homo sapiens, K562, single dose 10 µM, 48 h, read-out: Growth inhibition percent (GI %)
Experimental: as §1, §2

MOLT-4 = assay: NCI-60 one-dose SRB screen (Leukemia); format: cell-based; conditions: Homo sapiens, single dose 10 µM, 48 h, read-out: Growth inhibition percent (GI %)
Experimental: as §1, §2

HL-60(TB) = assay: NCI-60 one-dose SRB screen (Leukemia); format: cell-based; conditions: Homo sapiens, single dose 10 µM, 48 h, read-out: Growth inhibition percent (GI %)
Experimental: as §1, §2

CCRF-CEM = assay: NCI-60 one-dose SRB screen (Leukemia); format: cell-based; conditions: Homo sapiens, single dose 10 µM, 48 h, read-out: Growth inhibition percent (GI %)
Experimental: as §1, §2

SR = assay: NCI-60 one-dose SRB screen (Leukemia); format: cell-based; conditions: Homo sapiens, single dose 10 µM, 48 h, read-out: Growth inhibition percent (GI %)
Experimental: as §1, §2

RPMI-8226 = assay: NCI-60 one-dose SRB screen (Leukemia); format: cell-based; conditions: Homo sapiens, single dose 10 µM, 48 h, read-out: Growth inhibition percent (GI %)
Experimental: as §1, §2

T-47D = assay: NCI-60 one-dose SRB screen (Breast Cancer); format: cell-based; conditions: Homo sapiens, T47D, single dose 10 µM, 48 h, read-out: Growth inhibition percent (GI %)
Experimental: as §1, §2

MDA-MB-468 = assay: NCI-60 one-dose SRB screen (Breast Cancer); format: cell-based; conditions: Homo sapiens, single dose 10 µM, 48 h, read-out: Growth inhibition percent (GI %)
Experimental: as §1, §2

MCF-7 = assay: NCI-60 one-dose SRB screen (Breast Cancer); format: cell-based; conditions: Homo sapiens, MCF7, single dose 10 µM, 48 h, read-out: Growth inhibition percent (GI %)
Experimental: as §1, §2

MDA-MB-231/ATCC = assay: NCI-60 one-dose SRB screen (Breast Cancer); format: cell-based; conditions: Homo sapiens, single dose 10 µM, 48 h, read-out: Growth inhibition percent (GI %)
Experimental: as §1, §2

HS 578T = assay: NCI-60 one-dose SRB screen (Breast Cancer); format: cell-based; conditions: Homo sapiens, single dose 10 µM, 48 h, read-out: Growth inhibition percent (GI %)
Experimental: as §1, §2

BT-549 = assay: NCI-60 one-dose SRB screen (Breast Cancer); format: cell-based; conditions: Homo sapiens, single dose 10 µM, 48 h, read-out: Growth inhibition percent (GI %)
Experimental: as §1, §2

HCT-15 = assay: NCI-60 one-dose SRB screen (Colon Cancer); format: cell-based; conditions: Homo sapiens, single dose 10 µM, 48 h, read-out: Growth inhibition percent (GI %)
Experimental: as §1, §2

HCC-2998 = assay: NCI-60 one-dose SRB screen (Colon Cancer); format: cell-based; conditions: Homo sapiens, single dose 10 µM, 48 h, read-out: Growth inhibition percent (GI %)
Experimental: as §1, §2

COLO 205 = assay: NCI-60 one-dose SRB screen (Colon Cancer); format: cell-based; conditions: Homo sapiens, single dose 10 µM, 48 h, read-out: Growth inhibition percent (GI %)
Experimental: as §1, §2

KM12 = assay: NCI-60 one-dose SRB screen (Colon Cancer); format: cell-based; conditions: Homo sapiens, single dose 10 µM, 48 h, read-out: Growth inhibition percent (GI %)
Experimental: as §1, §2

HT29 = assay: NCI-60 one-dose SRB screen (Colon Cancer); format: cell-based; conditions: Homo sapiens, HT-29, single dose 10 µM, 48 h, read-out: Growth inhibition percent (GI %)
Experimental: as §1, §2

HCT-116 = assay: NCI-60 one-dose SRB screen (Colon Cancer); format: cell-based; conditions: Homo sapiens, single dose 10 µM, 48 h, read-out: Growth inhibition percent (GI %)
Experimental: as §1, §2

SW-620 = assay: NCI-60 one-dose SRB screen (Colon Cancer); format: cell-based; conditions: Homo sapiens, single dose 10 µM, 48 h, read-out: Growth inhibition percent (GI %)
Experimental: as §1, §2

SF-295 = assay: NCI-60 one-dose SRB screen (CNS Cancer); format: cell-based; conditions: Homo sapiens, single dose 10 µM, 48 h, read-out: Growth inhibition percent (GI %)
Experimental: as §1, §2

SF-268 = assay: NCI-60 one-dose SRB screen (CNS Cancer); format: cell-based; conditions: Homo sapiens, single dose 10 µM, 48 h, read-out: Growth inhibition percent (GI %)
Experimental: as §1, §2

SNB-75 = assay: NCI-60 one-dose SRB screen (CNS Cancer); format: cell-based; conditions: Homo sapiens, single dose 10 µM, 48 h, read-out: Growth inhibition percent (GI %)
Experimental: as §1, §2

SF-539 = assay: NCI-60 one-dose SRB screen (CNS Cancer); format: cell-based; conditions: Homo sapiens, single dose 10 µM, 48 h, read-out: Growth inhibition percent (GI %)
Experimental: as §1, §2

U251 = assay: NCI-60 one-dose SRB screen (CNS Cancer); format: cell-based; conditions: Homo sapiens, U-251, single dose 10 µM, 48 h, read-out: Growth inhibition percent (GI %)
Experimental: as §1, §2

SNB-19 = assay: NCI-60 one-dose SRB screen (CNS Cancer); format: cell-based; conditions: Homo sapiens, single dose 10 µM, 48 h, read-out: Growth inhibition percent (GI %)
Experimental: as §1, §2

hCA XII = hCA XII (Homo sapiens, UniProt O43570); assay: CA inhibitory activity, spectrophotometric p-NPA assay; format: biochemical; conditions: p-NPA substrate, pH 7.5, 25 °C, triplicate; read-out: IC50 (µM) ± SD hCA XII
hCA XII, sequence (O43570 25-354): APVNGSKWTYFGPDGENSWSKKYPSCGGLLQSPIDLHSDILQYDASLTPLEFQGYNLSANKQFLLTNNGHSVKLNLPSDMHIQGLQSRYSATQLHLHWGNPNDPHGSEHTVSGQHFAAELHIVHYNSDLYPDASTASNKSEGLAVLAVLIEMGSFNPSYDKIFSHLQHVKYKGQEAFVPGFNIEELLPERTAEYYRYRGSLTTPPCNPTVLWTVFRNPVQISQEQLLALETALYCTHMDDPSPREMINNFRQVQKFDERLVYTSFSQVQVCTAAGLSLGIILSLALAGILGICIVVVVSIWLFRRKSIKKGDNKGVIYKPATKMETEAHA

In the case of `COc1ccc(-c2nn(-c3ccc(S(N)(=O)=O)cc3)cc2C(=O)NNC(N)=S)cc1` [Compound 9c, 2-[3-(4-Methoxyphenyl)-1-(4-sulfamoylphenyl)-1H-pyrazole-4-carbonyl] hydrazine-1-carbothioamide], the inhibition at 10 µM (NCI-H522) is reported as 8.06%, the inhibition at 10 µM (HOP-62) is reported as < 5% and the inhibition at 10 µM (NCI-H460) is reported as < 5%. The inhibition at 10 µM (NCI-H226) was < 5%, the inhibition at 10 µM (K-562) was < 5% and the inhibition at 10 µM (MOLT-4) was < 5%. For the same molecule, the inhibition at 10 µM (HL-60(TB)) was < 5%, the inhibition at 10 µM (CCRF-CEM) was < 5% and the inhibition at 10 µM (SR) was < 5%. For the same molecule, the inhibition at 10 µM (RPMI-8226) was < 5%, the inhibition at 10 µM (T-47D) was < 5% and the inhibition at 10 µM (MDA-MB-468) was < 5%. The inhibition at 10 µM (MCF-7) was < 5%, the inhibition at 10 µM (MDA-MB-231/ATCC) was < 5% and the inhibition at 10 µM (HS 578T) was < 5%. The inhibition at 10 µM (BT-549) was < 5%, the inhibition at 10 µM (HCT-15) was < 5% and the inhibition at 10 µM (HCC-2998) was < 5%. The inhibition at 10 µM (COLO 205) was < 5%, the inhibition at 10 µM (KM12) was < 5% and the inhibition at 10 µM (HT29) was < 5%. For the same molecule, the inhibition at 10 µM (HCT-116) was < 5%, the inhibition at 10 µM (SW-620) was < 5% and the inhibition at 10 µM (SF-295) was < 5%. For the same molecule, the inhibition at 10 µM (SF-268) was < 5%, the inhibition at 10 µM (SNB-75) was < 5% and the inhibition at 10 µM (SF-539) was < 5%. The inhibition at 10 µM (U251) was < 5%, the inhibition at 10 µM (SNB-19) was < 5% and the melting point was 205 to 207 °C. The IC50 (hCA XII) was 0.168 ± 0.006 µM.
